Laboratory results as given in PubChem BioAssay (NCI).
Several values for one entry are separate records, joined by “and”; a condition that tells them apart may be missing. Equal entries are not always repeated.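 Five concentrations, 48 hours, 96-well plates. Here, GI50 denotes the concentration required for 50% inhibition of growth. At the TGI there is no net growth.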

Key:
Test in all cases: growth of human tumour cells (NCI), 48 h
UO-31 renal = system: UO-31 renal
HCT-15 colon = system: HCT-15 colon
ACHN renal = system: ACHN renal
U251 CNS = system: U251 CNS
MOLT-4 leukemia = system: MOLT-4 leukemia
NCI-H23 lung = system: NCI-H23 lung
CCRF-CEM leukemia = system: CCRF-CEM leukemia
SN12C renal = system: SN12C renal
LOX IMVI melanoma = system: LOX IMVI melanoma
T-47D breast = system: T-47D breast

Row | Compound | GI50 (UO-31 renal) | TGI (UO-31 renal) | GI50 (HCT-15 colon) | TGI (HCT-15 colon) | GI50 (ACHN renal) | TGI (ACHN renal) | GI50 (U251 CNS) | TGI (U251 CNS) | GI50 (MOLT-4 leukemia) | TGI (MOLT-4 leukemia) | GI50 (NCI-H23 lung) | TGI (NCI-H23 lung) | GI50 (CCRF-CEM leukemia) | TGI (CCRF-CEM leukemia) | GI50 (SN12C renal) | TGI (SN12C renal) | GI50 (LOX IMVI melanoma) | TGI (LOX IMVI melanoma) | GI50 (T-47D breast) | TGI (T-47D breast)
1 | Cc1cc(S(=O)(=O)Nc2nc3ccccc3c(=O)n2Cc2ccco2)c(S)cc1Cl | 49.5 µM | > 100 µM | 55 µM | > 100 µM | 49.8 µM | > 100 µM | 45.8 µM | > 100 µM | 18.6 µM | > 100 µM | 46 µM | > 100 µM | 29.2 µM | > 100 µM | 29.8 µM | 88.8 µM | 26.1 µM | 59.3 µM | 15 µM | 81.4 µM
2 | Cc1c(O)cccc1C(=O)N[C@@H](CSc1ccccc1)[C@H](O)CN1C[C@H]2CCCC[C@H]2C[C@H]1C(=O)NC(C)(C)C | 3.45 µM and 3.81 µM | 16.4 µM and 19.5 µM | 1.77 µM and 3.11 µM | 13.2 µM and 12.9 µM | 3.02 µM and 5.69 µM | 13.1 µM and 17.1 µM | 3.79 µM and 4.25 µM | 14.5 µM and 14.7 µM | 2.22 µM and 2.96 µM | 5.46 µM and 10.4 µM | 6.68 µM and 7 µM | 30.6 µM and 26.3 µM | 2.76 µM and 8.59 µM | 6.83 µM and > 27 µM | 4.07 µM and 6.63 µM | 12.6 µM and 18.3 µM | 5.27 µM and 5.39 µM | 18.8 µM and 15.8 µM | 3.79 µM and 6.02 µM | 19.4 µM and > 55.6 µM
3 | COc1ccc(C2=C(c3ccccc3)C(=O)N3CCCC3C2)cc1 (stereo not given) | 2.93 µM | > 100 µM | < 0.0249 µM | > 100 µM | 2.39 µM | > 100 µM | 0.336 µM | > 100 µM |  | > 100 µM | > 32.3 µM | > 100 µM | 1.79 µM | > 100 µM | 13 µM | > 100 µM | 0.115 µM | > 100 µM | > 52.4 µM | > 100 µM
4 | CC(=O)Oc1ccc(C2OC(c3ccc4ccccc4c3OC(C)=O)=NN2C(C)=O)c(OC(C)=O)c1 (stereo not given) | 0.146 µM | 3.14 µM | 0.294 µM | > 68 µM | 0.264 µM | > 100 µM | 0.316 µM | 30.4 µM | 0.454 µM | > 100 µM | 1.28 µM | 97.4 µM | 0.32 µM | > 100 µM | 0.512 µM | > 70.6 µM | 0.301 µM | 33.8 µM | 0.664 µM | > 52.6 µM
5 | CO/N=C(/C)COc1ccc2c(c1)oc(=O)c1cc(OC)ccc12 | 73.8 µM | > 100 µM | > 100 µM | > 100 µM | 75 µM | > 100 µM | > 100 µM | > 100 µM | > 100 µM | > 100 µM | > 100 µM | > 100 µM | > 100 µM | > 100 µM | > 100 µM | > 100 µM | > 100 µM | > 100 µM | > 100 µM | > 100 µM
6 | CCN1CCN(Cc2ccc(Nc3ncc(F)c(-c4cc(F)c5nc(C)n(C(C)C)c5c4)n3)nc2)CC1 | 0.139 µM | 7.26 µM | 0.47 µM | 11.7 µM | 0.172 µM | 9.56 µM | 0.317 µM | 11.6 µM | 0.156 µM | 9.85 µM | 3.26 µM | 15.2 µM | 1.14 µM | 15 µM | 5.55 µM | 12.6 µM | 1.41 µM | 10.9 µM | 19.3 µM | 29 µM
7 | CC(C)(C)N1CC1CNC(=O)C(=O)NCC1CN1C(C)(C)C (stereo not given) |  | > 21.3 µM |  | 10.5 µM |  | 13.7 µM |  | 7.29 µM |  | 31.3 µM |  | 5.96 µM |  | 15.2 µM |  | 15.7 µM |  | > 54.1 µM |  | 98.1 µM
8 | Nc1c(C(=O)Nc2cccc(Cl)c2)sc2nc3c(cc12)C(O)CCC3 (stereo not given) | 1.1 µM | 26.8 µM | 0.37 µM | > 100 µM | 1.04 µM | 23.4 µM | 0.379 µM | 13.6 µM | 0.488 µM | > 57.7 µM | 0.711 µM | > 100 µM | 0.31 µM | 17.3 µM | 0.773 µM | > 100 µM | 0.762 µM | 52.1 µM | 0.463 µM | 53.2 µM
9 | CC(C)n1cc(-c2ccc3c(c2)N(C)CC3)c2c(NS(=O)(=O)c3ccn(C)n3)ccnc21 | 31.7 µM | > 100 µM | 35.9 µM | > 100 µM | 49.8 µM | > 100 µM | 61.9 µM | > 100 µM | 65.7 µM | > 100 µM | 74.6 µM | > 100 µM | > 100 µM | > 100 µM | 91.8 µM | > 100 µM | 47.8 µM | > 100 µM | 29.7 µM | > 100 µM
10 | CC1(C)N=C(N)N=C(N)N1c1ccc(OCC(=O)Nc2ccc(S(=O)(=O)F)cc2Cl)c(Cl)c1 | 44.7 µM | > 100 µM | 4.15 µM | > 100 µM | 5.57 µM | > 100 µM | 5.73 µM | > 100 µM | 6.74 µM | > 100 µM | 4.37 µM | > 100 µM | 0.277 µM | > 100 µM | 4.41 µM | > 100 µM | 1.12 µM | > 100 µM | > 100 µM | > 100 µM
11 | CSC1=CC(=O)c2ccccc2C1=O | 1.4 µM | 2.84 µM | 11.6 µM | 26.1 µM | 1.66 µM | 3.07 µM | 11 µM | 23.8 µM | 1.64 µM | 4.86 µM | 3.45 µM | 17.5 µM | 0.296 µM | 1.44 µM | 5.31 µM | 19.4 µM | 1.75 µM | 3.92 µM | 0.41 µM | 2.1 µM
12 | C[n+]1cccc(NC(=O)c2ccc3ccc4ccc(C(=O)Nc5ccc[n+](C)c5)nc4c3n2)c1 | > 20.2 µM | > 100 µM | 3.37 µM | > 100 µM | 4.75 µM | > 100 µM | 2.23 µM | > 100 µM | 21.3 µM | > 100 µM | 1.41 µM | > 45 µM | 5.56 µM | > 100 µM | 0.157 µM | 1.32 µM | 5.6 µM | > 100 µM | 0.52 µM | > 100 µM
13 | CCOC(=O)c1c(C)n([O-])c2cc(F)c(F)cc2[n+]1=O | 1.44 µM | 2.85 µM | 0.455 µM | 2.04 µM | 1.73 µM | 3.23 µM | 1.51 µM | 3.04 µM | 0.541 µM | 6.62 µM | 1.88 µM | 3.78 µM | 1.1 µM | 7.84 µM | 1.01 µM | 2.18 µM | 0.514 µM | 1.63 µM | 1.87 µM | 3.69 µM
14 | CS(=O)(=O)N1CCC(Nc2ncc(C(=O)c3c(F)cccc3F)c(N)n2)CC1 | 12 µM | > 25 µM | 11.8 µM | > 25 µM | 7.06 µM | > 25 µM | 6.33 µM | > 25 µM | 11.2 µM | > 25 µM | 8.6 µM | > 25 µM | 9.91 µM | > 25 µM | 12.3 µM | > 25 µM | 9.9 µM | > 25 µM | 12 µM | > 25 µM
15 | Clc1nc(Cl)c2ncn(-c3ccccc3)c2n1 | 1.63 µM | 3.13 µM | 3.42 µM | 16 µM | 1.96 µM | 4.12 µM | 1.8 µM | 3.73 µM | 7.95 µM | 52.3 µM | 2.14 µM | 4.84 µM | 2.7 µM | 6.55 µM | 7.45 µM | 21.5 µM | 1.67 µM | 3.28 µM | 2.95 µM | 8.63 µM
16 | COc1cccc(C(=O)NNc2nc(Cl)nc(N3CCN(C(c4ccccc4)c4ccccc4)CC3)n2)c1 | 3.14 µM | 22 µM | 1.9 µM | 3.73 µM | 1.76 µM | 3.16 µM | 1.78 µM | 3.51 µM | 2.36 µM | 7.54 µM | 2.7 µM | 7.5 µM | 2.23 µM | 30.4 µM | 1.8 µM | 3.47 µM | 1.7 µM | 3.14 µM | > 100 µM | > 100 µM
17 | CC(C)C[C@H](NC(=O)[C@@H](Cc1ccccc1)n1ccc(Nc2ccccc2)cc1=O)B(O)O | 0.561 µM | 3.13 µM | 1.11 µM | 17 µM | 0.358 µM | > 100 µM | 0.417 µM | 12.2 µM | 0.247 µM | > 100 µM | 0.835 µM | 19.4 µM | 0.34 µM | 5.98 µM | 0.73 µM | 6.94 µM | 0.151 µM | 0.409 µM | 0.413 µM | 3.97 µM
18 | COc1ccc(OC)c(C2=C(c3cn(C)c4ccccc34)C(=O)NC2=O)c1 | > 25 µM | > 25 µM | > 23.9 µM | > 25 µM | > 25 µM | > 25 µM | > 25 µM | > 25 µM | 24.6 µM | > 25 µM | > 25 µM | > 25 µM | > 25 µM | > 25 µM | > 25 µM | > 25 µM | > 25 µM | > 25 µM | > 25 µM | > 25 µM
19 | COc1ccc2nc3cc([N+](=O)[O-])ccc3c(NCCO)c2c1 | 4.75 µM | 19 µM | 7.24 µM |  | 4.87 µM | 31.7 µM | 1.44 µM |  | 1.14 µM | 6.34 µM | 2.68 µM | 9.59 µM | 2.17 µM | 13.4 µM | 2.51 µM | 30.8 µM | 2.51 µM | 9.18 µM | 0.539 µM | 4.65 µM
20 | CCCCCCCCCCCCCCCC(=O)NS(=O)(=O)OC[C@H]1O[C@@H](n2cnc3c(N)ncnc32)[C@H](O)[C@@H]1O | 0.339 µM | 1.33 µM | < 0.0424 µM | 2.11 µM |  | 1.64 µM | < 0.0162 µM | < 0.0277 µM | 0.962 µM | 8.92 µM | 0.321 µM | 1.25 µM |  | 10.6 µM | 0.262 µM | 1.45 µM | 0.394 µM | 1.58 µM | 0.275 µM | 1.34 µM
21 | Nc1nc2ccc(CNc3ccc(C(=O)NC(CC(=O)O)C(=O)O)cc3)cc2c(=O)[nH]1 (stereo not given) | 9.74 µM | > 100 µM | 0.757 µM | > 100 µM | 3.6 µM | > 100 µM | 7.49 µM | > 100 µM | 16.3 µM | > 100 µM | 5.83 µM | > 100 µM | 4.86 µM | > 100 µM | 3.86 µM | > 100 µM | 0.472 µM | > 100 µM | > 100 µM | > 100 µM
